From the NIST ThermoML archive (doi:10.1007/s10765-006-0056-z)
± gives the expanded uncertainty stated by the source.

Test: molar heat capacity at constant volume; xn = mol fraction of the nth substance listed
Settings: Fluid (supercritical or subcritical phases), Isochoric Heat Capacity Apparatus

CCCCCCCCCC [decane] + O=C=O
Settings	molar heat capacity at constant volume [J/K/mol]
485.62 K, Mass density=375 kg/m3, x1 = 0.178	481.74 ± 9.7
486.19 K, Mass density=374.7 kg/m3, x1 = 0.095	337.46 ± 6.8
486.48 K, Mass density=201.8 kg/m3, x1 = 0.095	412.09 ± 8.3
486.76 K, Mass density=375 kg/m3, x1 = 0.178	484.88 ± 9.7
486.96 K, Mass density=131.5 kg/m3, x1 = 0.095	529.99 ± 11
486.96 K, Mass density=201.8 kg/m3, x1 = 0.095	409.43 ± 8.2
487.15 K, Mass density=155 kg/m3, x1 = 0.095	472.85 ± 9.4
487.15 K, Mass density=201.8 kg/m3, x1 = 0.095	398.22 ± 7.9
487.34 K, Mass density=155 kg/m3, x1 = 0.095	461.86 ± 9.2
487.53 K, Mass density=155 kg/m3, x1 = 0.095	453.38 ± 9.1
487.72 K, Mass density=155 kg/m3, x1 = 0.095	442.23 ± 8.9
487.96 K, Mass density=155 kg/m3, x1 = 0.095	446.71 ± 9
488.19 K, Mass density=155 kg/m3, x1 = 0.095	447.14 ± 9
488.49 K, Mass density=176.7 kg/m3, x1 = 0.095	436.9 ± 8.7
488.58 K, Mass density=176.7 kg/m3, x1 = 0.095	427.94 ± 8.5
488.68 K, Mass density=176.7 kg/m3, x1 = 0.095	434.18 ± 8.7
488.82 K, Mass density=339.4 kg/m3, x1 = 0.178	500.32 ± 10
488.87 K, Mass density=176.7 kg/m3, x1 = 0.095	431.72 ± 8.6
489.06 K, Mass density=176.7 kg/m3, x1 = 0.095	425.91 ± 8.5
489.44 K, Mass density=339.4 kg/m3, x1 = 0.178	498.78 ± 10
490.01 K, Mass density=408.8 kg/m3, x1 = 0.178	466.06 ± 9.3
490.58 K, Mass density=398.3 kg/m3, x1 = 0.095	337.25 ± 6.7
491.54 K, Mass density=281.4 kg/m3, x1 = 0.095	350.21 ± 7
493.44 K, Mass density=339.4 kg/m3, x1 = 0.178	492.82 ± 9.8
493.44 K, Mass density=375 kg/m3, x1 = 0.178	478.92 ± 9.6
493.63 K, Mass density=320.2 kg/m3, x1 = 0.095	344.98 ± 6.9
494.29 K, Mass density=339.4 kg/m3, x1 = 0.178	493.86 ± 9.9
494.39 K, Mass density=375 kg/m3, x1 = 0.178	481.74 ± 9.7
494.76 K, Mass density=87 kg/m3, x1 = 0.095	750.57 ± 15
494.95 K, Mass density=374.7 kg/m3, x1 = 0.095	342.85 ± 6.9
495.33 K, Mass density=176.7 kg/m3, x1 = 0.095	423.94 ± 8.5
495.52 K, Mass density=241 kg/m3, x1 = 0.095	368.51 ± 7.4
495.52 K, Mass density=408.8 kg/m3, x1 = 0.178	468.89 ± 9.3
496.56 K, Mass density=131.5 kg/m3, x1 = 0.095	548.39 ± 11
497.42 K, Mass density=310.8 kg/m3, x1 = 0.178	516 ± 10
497.51 K, Mass density=310.8 kg/m3, x1 = 0.178	512.93 ± 10
497.6 K, Mass density=310.8 kg/m3, x1 = 0.178	514.22 ± 10
499.87 K, Mass density=110.8 kg/m3, x1 = 0.095	615.07 ± 12
499.87 K, Mass density=155 kg/m3, x1 = 0.095	463.68 ± 9.3
500.06 K, Mass density=375 kg/m3, x1 = 0.178	479.47 ± 9.6
500.9 K, Mass density=310.8 kg/m3, x1 = 0.178	505.18 ± 10
500.9 K, Mass density=398.3 kg/m3, x1 = 0.095	339.7 ± 6.8
501.75 K, Mass density=310.8 kg/m3, x1 = 0.178	507.27 ± 10
502.88 K, Mass density=408.8 kg/m3, x1 = 0.178	473.26 ± 9.5
503.07 K, Mass density=339.4 kg/m3, x1 = 0.178	489.49 ± 9.8
503.82 K, Mass density=339.4 kg/m3, x1 = 0.178	492.32 ± 9.8
504.88 K, Mass density=284.3 kg/m3, x1 = 0.178	533.78 ± 11
505.5 K, Mass density=201.8 kg/m3, x1 = 0.095	397.32 ± 7.9
505.96 K, Mass density=284.3 kg/m3, x1 = 0.178	524.24 ± 11
506.25 K, Mass density=374.7 kg/m3, x1 = 0.095	343.97 ± 6.9
506.32 K, Mass density=284.3 kg/m3, x1 = 0.178	521.66 ± 10
507.56 K, Mass density=320.2 kg/m3, x1 = 0.095	346.42 ± 6.9
508.72 K, Mass density=284.3 kg/m3, x1 = 0.178	513.42 ± 10
509.65 K, Mass density=284.3 kg/m3, x1 = 0.178	513.42 ± 10
512.22 K, Mass density=339.4 kg/m3, x1 = 0.178	488.69 ± 9.8
512.4 K, Mass density=241 kg/m3, x1 = 0.095	370.11 ± 7.4
512.96 K, Mass density=339.4 kg/m3, x1 = 0.178	489.49 ± 9.8
513.52 K, Mass density=155 kg/m3, x1 = 0.095	469.92 ± 9.4
513.7 K, Mass density=176.7 kg/m3, x1 = 0.095	436.2 ± 8.7
514.1 K, Mass density=110.8 kg/m3, x1 = 0.095	628.94 ± 13
515.19 K, Mass density=281.4 kg/m3, x1 = 0.095	353.36 ± 7
515.37 K, Mass density=398.3 kg/m3, x1 = 0.095	347.33 ± 6.9
515.86 K, Mass density=131.5 kg/m3, x1 = 0.095	553.72 ± 11
516.11 K, Mass density=87 kg/m3, x1 = 0.095	740.97 ± 15
516.76 K, Mass density=83.3 kg/m3, x1 = 0.178	975.91 ± 19
517.48 K, Mass density=83.3 kg/m3, x1 = 0.178	984.15 ± 20
517.59 K, Mass density=374.7 kg/m3, x1 = 0.095	348.19 ± 7
517.68 K, Mass density=310.8 kg/m3, x1 = 0.178	496.69 ± 10
518.51 K, Mass density=310.8 kg/m3, x1 = 0.178	499.76 ± 10
519.25 K, Mass density=155 kg/m3, x1 = 0.095	471.73 ± 9.4
520.73 K, Mass density=117.8 kg/m3, x1 = 0.178	788.7 ± 16
521.28 K, Mass density=110.8 kg/m3, x1 = 0.095	622.54 ± 12
522.57 K, Mass density=320.2 kg/m3, x1 = 0.095	352.88 ± 7
523.12 K, Mass density=281.4 kg/m3, x1 = 0.095	355.33 ± 7.1
523.67 K, Mass density=164.2 kg/m3, x1 = 0.178	675.66 ± 14
524.03 K, Mass density=164.2 kg/m3, x1 = 0.178	667.67 ± 13
524.03 K, Mass density=201.8 kg/m3, x1 = 0.095	397.1 ± 7.9
524.22 K, Mass density=320.2 kg/m3, x1 = 0.095	351.33 ± 7
524.4 K, Mass density=164.2 kg/m3, x1 = 0.178	659.98 ± 13
524.77 K, Mass density=83.3 kg/m3, x1 = 0.178	982.86 ± 20
526.6 K, Mass density=117.8 kg/m3, x1 = 0.178	779.17 ± 16
528.43 K, Mass density=117.8 kg/m3, x1 = 0.178	775.54 ± 15
529.61 K, Mass density=164.2 kg/m3, x1 = 0.178	637.53 ± 13
529.71 K, Mass density=117.8 kg/m3, x1 = 0.178	768.84 ± 15
530.07 K, Mass density=164.2 kg/m3, x1 = 0.178	636.24 ± 13
530.25 K, Mass density=241 kg/m3, x1 = 0.095	375.44 ± 7.5
530.62 K, Mass density=164.2 kg/m3, x1 = 0.178	631.87 ± 13
530.67 K, Mass density=339.4 kg/m3, x1 = 0.178	492.82 ± 9.8
531.4 K, Mass density=339.4 kg/m3, x1 = 0.178	493.86 ± 9.9
532.44 K, Mass density=374.7 kg/m3, x1 = 0.095	354.69 ± 7.1
532.99 K, Mass density=87 kg/m3, x1 = 0.095	727.63 ± 14
533.17 K, Mass density=117.8 kg/m3, x1 = 0.178	758.57 ± 15
533.71 K, Mass density=155 kg/m3, x1 = 0.095	467.68 ± 9.3
534.08 K, Mass density=117.8 kg/m3, x1 = 0.178	754.94 ± 15
535.31 K, Mass density=131.5 kg/m3, x1 = 0.095	565.99 ± 11
535.39 K, Mass density=83.3 kg/m3, x1 = 0.178	958.14 ± 19
535.89 K, Mass density=164.2 kg/m3, x1 = 0.178	631.13 ± 13
536.16 K, Mass density=83.3 kg/m3, x1 = 0.178	972.28 ± 19
536.98 K, Mass density=83.3 kg/m3, x1 = 0.178	973.82 ± 19
536.98 K, Mass density=110.8 kg/m3, x1 = 0.095	693.49 ± 14
537.7 K, Mass density=320.2 kg/m3, x1 = 0.095	358.27 ± 7.1
538.25 K, Mass density=281.4 kg/m3, x1 = 0.095	361.63 ± 7.3
543.48 K, Mass density=201.8 kg/m3, x1 = 0.095	402.01 ± 8.1
543.48 K, Mass density=310.8 kg/m3, x1 = 0.178	509.05 ± 10
543.84 K, Mass density=176.7 kg/m3, x1 = 0.095	450.93 ± 9
544.11 K, Mass density=310.8 kg/m3, x1 = 0.178	514.46 ± 10
544.38 K, Mass density=284.3 kg/m3, x1 = 0.178	517.29 ± 10
546.37 K, Mass density=117.8 kg/m3, x1 = 0.178	758.81 ± 15
546.63 K, Mass density=83.3 kg/m3, x1 = 0.178	971.79 ± 19
547.62 K, Mass density=83.3 kg/m3, x1 = 0.178	992.89 ± 20
550.12 K, Mass density=87 kg/m3, x1 = 0.095	712.69 ± 14
550.12 K, Mass density=320.2 kg/m3, x1 = 0.095	360.72 ± 7.2
550.48 K, Mass density=281.4 kg/m3, x1 = 0.095	369.42 ± 7.4
550.84 K, Mass density=155 kg/m3, x1 = 0.095	462.13 ± 9.2
554.06 K, Mass density=164.2 kg/m3, x1 = 0.178	623.38 ± 12
556.37 K, Mass density=131.5 kg/m3, x1 = 0.095	553.72 ± 11
556.91 K, Mass density=83.3 kg/m3, x1 = 0.178	997.75 ± 20
559.75 K, Mass density=241 kg/m3, x1 = 0.095	388.83 ± 7.8
560.29 K, Mass density=281.4 kg/m3, x1 = 0.095	373.42 ± 7.5
561.17 K, Mass density=176.7 kg/m3, x1 = 0.095	448.69 ± 9
561.35 K, Mass density=320.2 kg/m3, x1 = 0.095	369.84 ± 7.4
568.43 K, Mass density=241 kg/m3, x1 = 0.095	393.53 ± 7.9
